Reference: US9969775B2, “CGRP antagonist peptides” (Ferring B.V., priority 2015, dated 2018)
Numbered stars: 1 amine (or outer) side, 2 acyl side, 3 side chain; on linkers, the order of the positions; unused ones are H or OH. Bridge positions count the residues as written; N and C are the ends. Square brackets hold non-standard residues; d marks the D form. Side chains are listed from the residue outwards. Peptide text beside a SMILES is read from it. * marks the point of attachment. Phe(3-CH2NH2) = O=C([C@H](Cc1cccc(CN[*:3])c1)N[*:1])[*:2]; Phe(3-CONH2) = NC(=O)c1cccc(C[C@H](N)C(=O)O)c1; X16 = CCN(CC)CC[C@H](N[*:1])C(=O)[*:2]; Picolinoyl(5-F) = O=C(c1ccc(F)cn1)*; Dab(iPr) = CC(C)NCC[C@H](N)C(=O)O; Benzoyl(4-F) = O=C(c1ccc(F)cc1)*; Oxazole2carbonyl = O=C(c1ncco1)*; 3Pal = N[C@@H](Cc1cccnc1)C(=O)O; Picolinoyl = O=C(c1ccccn1)*; ΔPro = O=C(O)[C@@H]1C=CCN1; Orn = NCCC[C@H](N)C(=O)O; Dap = NC[C@H](N)C(=O)O; AEEA = NCCOCCOCC(=O)O

How the values were obtained:
[1] = molecular target: T1, hCGRP receptor (CALCRL:RAMP1) (Homo sapiens, UniProt O60894+Q16602); experiment: CGRP receptor antagonist activity measured by cAMP assay (HTRF); assay type: cell-based; conditions: agonist human α-CGRP; for Emax: % MPE: percent of the maximal possible effect, read-out: hCGRP-R Efficacy Antag (%) Ave; for IC50: GeneBLAzer CALCRL:RAMP1-CRE-bla Freestyle 293F cells, 30 minutes, read-out: hCGRP-R IC50 Ave
T1 construct: host or cells: GeneBLAzer CALCRL:RAMP1-CRE-bla Freestyle 293F
Description: Example 6: CGRP Receptor Antagonist Activity Measured by cAMP Assay
CGRP receptor agonists increase intracellular cyclic adenosine mono-phosphate (cAMP). CGRP receptor antagonists can reduce the agonist effect. Antagonist activity was assessed by measurement of cyclic adenosine mono-phosphate (cAMP) using cell line stably expressing the hCGRP receptor (GeneBLAzer® CALCRL:RAMP1-CRE-bla Freestyle™ 293F, Invitrogen). hCGRP receptor expressing cells were maintained in DMEM high-glucose with GlutaMAX™ containing 10% (v/v) FBS, 0.1 mM NEAA, 25 mM HEPES, 5 ug/ml Blasticidin, 100 ug/ml Hygromycin, and 400 ug/ml Geneticin at 37° C. under 5% CO2 in a humidified atmosphere. For cAMP measurement, cells were washed once with 5 ml 1×PBS, cell maintenance media was replaced with compound buffer ((CB): DMEM containing 0.1% BSA and 0.5 mM IBMX), and flasks were incubated for 1 hour at 37° C. under 5% CO2 in a humidified atmosphere. Cells were removed from culture flasks using non-enzymatic cell dissociation buffer and harvested in CB. The reaction was performed in 384 well white small volume plates (Greiner) at a density of 10,000 cells/well. Cells were exposed to varying concentrations of antagonist compounds for 30 minutes in the presence of a fixed concentration of agonist (human α-CGRP). cAMP levels were measured using an HTRF (homogeneous time resolved fluorescence)-based competitive cAMP immunoassay (cAMP Dynamic 2 Kit, Cisbio), according to the manufacturer's instructions. […] Reported parameters include antagonist potency IC50 (the concentration causing half-maximal inhibition of the agonist response for antagonist compounds) and efficacy (% MPE: percent of the maximal possible effect).

[2] = molecular target: T2, hAM2 receptor (CALCRL:RAMP3) (Homo sapiens, UniProt O60896+Q16602); experiment: AM2 receptor antagonist activity measured by cAMP assay (HTRF); assay type: cell-based; conditions: for Emax: % MPE: percent of the maximal possible effect, read-out: hAM2-R Efficacy Antag (%) Ave; for Emax / IC50: agonist human adrenomedullin; for IC50: GeneBLAzer CALCRL:RAMP3-CRE-bla Freestyle 293F cells, read-out: hAM2-R IC50 Ave; for selectivity ratio CGRP/AM2: selectivity ratio for hCGRP over hAM2, calculated from the IC50 values
T2 construct: expressed in transfected cells; host or cells: GeneBLAzer CALCRL:RAMP3-CRE-bla Freestyle 293F
T2 sequence (Q16602 23-461): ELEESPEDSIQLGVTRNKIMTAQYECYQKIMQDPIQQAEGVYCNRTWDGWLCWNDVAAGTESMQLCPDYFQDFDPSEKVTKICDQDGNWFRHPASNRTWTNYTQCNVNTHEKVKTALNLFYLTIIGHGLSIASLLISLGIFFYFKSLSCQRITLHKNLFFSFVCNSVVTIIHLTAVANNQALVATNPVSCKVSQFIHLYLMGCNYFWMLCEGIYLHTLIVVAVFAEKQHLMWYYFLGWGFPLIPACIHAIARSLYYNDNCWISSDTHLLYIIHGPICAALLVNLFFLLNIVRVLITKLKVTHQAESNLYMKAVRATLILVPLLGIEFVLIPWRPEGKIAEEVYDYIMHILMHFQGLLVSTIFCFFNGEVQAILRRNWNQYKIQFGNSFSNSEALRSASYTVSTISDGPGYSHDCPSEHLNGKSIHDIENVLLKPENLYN
T2 sequence (O60896 24-148): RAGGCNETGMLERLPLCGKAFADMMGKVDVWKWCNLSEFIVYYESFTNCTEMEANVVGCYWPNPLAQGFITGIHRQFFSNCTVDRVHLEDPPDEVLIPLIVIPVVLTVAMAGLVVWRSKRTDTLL

T1 sequence (Q16602 23-461): as the sequence (Q16602 23-461) above
T1 sequence (O60894 27-148): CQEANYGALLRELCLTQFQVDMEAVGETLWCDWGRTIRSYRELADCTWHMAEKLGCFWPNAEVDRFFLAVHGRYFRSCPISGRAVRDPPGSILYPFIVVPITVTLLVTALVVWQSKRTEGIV

Row | Compound | Emax [1] [%] | IC50 [1] [nM] | Emax [2] [%] | IC50 [2] [nM] | selectivity ratio CGRP/AM2 [2]
1 | CC(C)[C@@H]1NC(=O)[C@H](CC(=O)O)NC(=O)[C@H](CCCNC(=N)N)NC(=O)[C@@H](NC(=O)[C@H](Cc2ccc(O)cc2)NC(=O)[C@H](NC(=O)c2ccc(F)cc2)C(C)C)CSSC[C@@H](C(=O)N[C@@H](Cc2cccnc2)C(N)=O)NC(=O)[C@H](Cc2ccccc2)NC(=O)[C@@H]2CCCN2C(=O)CNC1=O [Compound 1] ({Benzoyl(4-F)}-[dV]YCRDVGPFC[3Pal]-NH2; disulfide 3-10) | 100 | 0.14 | 101 | 52 | 362
2 | CC(C)[C@@H]1NC(=O)[C@H](CC(=O)O)NC(=O)[C@H](CCCNC(=N)N)NC(=O)[C@@H](NC(=O)[C@H](Cc2ccc(O)cc2)NC(=O)[C@H](NC(=O)c2ccc(F)cc2)C(C)C)CSSC[C@@H](C(=O)N[C@@H](Cc2cccnc2)C(N)=O)NC(=O)[C@H](Cc2cccnc2)NC(=O)[C@@H]2CCCN2C(=O)CNC1=O [Compound 2, Bz(4-F)-D-Val-Tyr-c(Cys-Arg-Asp-Val-Gly-Pro-3Pal-Cys)-3Pal-NH2] ({Benzoyl(4-F)}-[dV]YCRDVGP[3Pal]C[3Pal]-NH2; disulfide 3-10) | 100 | 0.08 | 100 | 45 | 555
3 | CC(C)[C@@H]1NC(=O)[C@H](CC(=O)O)NC(=O)[C@H](CCCNC(=N)N)NC(=O)[C@@H](NC(=O)[C@H](Cc2ccc(O)cc2)NC(=O)[C@H](NC(=O)c2ccccn2)C(C)C)CSSC[C@@H](C(=O)N[C@@H](Cc2cccnc2)C(N)=O)NC(=O)[C@H](Cc2cccnc2)NC(=O)[C@@H]2CCCN2C(=O)CNC1=O [Compound 3, Picolinoyl-D-Val-Tyr-c(Cys-Arg-Asp-Val-Gly-Pro-3Pal-Cys)-3Pal-NH2] (Picolinoyl-[dV]YCRDVGP[3Pal]C[3Pal]-NH2; disulfide 3-10) | 100 | 0.12 | 101 | 35 | 285
4 | CC(C)[C@@H]1NC(=O)[C@H](CC(=O)O)NC(=O)[C@H](CCCNC(=N)N)NC(=O)[C@@H](NC(=O)[C@H](Cc2ccc(O)cc2)NC(=O)[C@H](NC(=O)c2ccc(F)cc2)C(C)C)CSSC[C@@H](C(=O)N[C@@H](Cc2cccnc2)C(N)=O)NC(=O)[C@H](Cc2ccccc2)NC(=O)[C@@H]2C=CCN2C(=O)CNC1=O [Compound 4, Bz(4-F)-D-Val-Tyr-c(Cys-Arg-Asp-Val-Gly-Dhp-Phe-Cys)-3Pal-NH2] ({Benzoyl(4-F)}-[dV]YCRDVG[ΔPro]FC[3Pal]-NH2; disulfide 3-10) | 100 | 0.17 | 113 | 29 | 172
5 | CC(C)[C@@H]1NC(=O)[C@H](CC(=O)O)NC(=O)[C@H](CCCNC(=N)N)NC(=O)[C@@H](NC(=O)[C@H](Cc2ccc(O)cc2)NC(=O)[C@H](NC(=O)c2ccc(F)cc2)C(C)C)CSSC[C@@H](C(=O)N[C@@H](Cc2cccnc2)C(N)=O)NC(=O)[C@H](Cc2cccc(CN)c2)NC(=O)[C@@H]2CCCN2C(=O)CNC1=O [Compound 5, Bz(4-F)-D-Val-Tyr-c(Cys-Arg-Asp-Val-Gly-Pro-Phe(3-CH2NH2)-Cys)-3Pal-NH2] ({Benzoyl(4-F)}-[dV]YCRDVGP[Phe(3-CH2NH2)]C[3Pal]-NH2; disulfide 3-10) | 100 | 0.13 | 99 | 26 | 192
6 | CC(C)[C@@H]1NC(=O)[C@H](CC(=O)O)NC(=O)[C@H](CN)NC(=O)[C@@H](NC(=O)[C@H](Cc2ccc(O)cc2)NC(=O)[C@H](NC(=O)c2ccc(F)cc2)C(C)C)CSSC[C@@H](C(=O)N[C@@H](Cc2cccnc2)C(N)=O)NC(=O)[C@H](Cc2cccc(C(N)=O)c2)NC(=O)[C@@H]2CCCN2C(=O)CNC1=O [Compound 6, Bz(4-F)-D-Val-Tyr-c(Cys-Dpr-Asp-Val-Gly-Pro-Phe(3-Cbm)-Cys)-3Pal-NH2] ({Benzoyl(4-F)}-[dV]YC[Dap]DVGP[Phe(3-CONH2)]C[3Pal]-NH2; disulfide 3-10) | 100 | 0.17 | 113 | 101 | 612
7 | CC(C)[C@@H]1NC(=O)[C@H](CC(=O)O)NC(=O)[C@H](CN)NC(=O)[C@@H](NC(=O)[C@H](Cc2ccc(O)cc2)NC(=O)[C@H](NC(=O)c2ccc(F)cc2)C(C)C)CSSC[C@@H](C(=O)N[C@@H](Cc2cccnc2)C(N)=O)NC(=O)[C@H](Cc2ccc(O)cc2)NC(=O)[C@@H]2CCCN2C(=O)CNC1=O [Compound 7, Bz(4-F)-D-Val-Tyr-c(Cys-Dpr-Asp-Val-Gly-Pro-Tyr-Cys)-3Pal-NH2] ({Benzoyl(4-F)}-[dV]YC[Dap]DVGPYC[3Pal]-NH2; disulfide 3-10) | 100 | 0.13 | 100 | 43 | 334
8 | CCN(CC)CC[C@@H]1NC(=O)[C@@H](NC(=O)[C@H](Cc2ccc(O)cc2)NC(=O)[C@H](NC(=O)c2ccccn2)C(C)C)CSSC[C@@H](C(=O)N[C@@H](Cc2cccnc2)C(N)=O)NC(=O)[C@H](Cc2ccccc2)NC(=O)[C@@H]2CCCN2C(=O)CNC(=O)[C@H](C(C)C)NC(=O)[C@H](CC(=O)O)NC1=O [Compound 8, Picolinoyl-D-Val-Tyr-c(Cys-Dab(Et2)-Asp-Val-Gly-Pro-Phe-Cys)-3Pal-NH2] (Picolinoyl-[dV]YC[X16]DVGPFC[3Pal]-NH2; disulfide 3-10) | 100 | 0.09 | 100 | 30 | 347
9 | CC(C)NCC[C@@H]1NC(=O)[C@@H](NC(=O)[C@H](Cc2ccc(O)cc2)NC(=O)[C@H](NC(=O)c2ccccn2)C(C)C)CSSC[C@@H](C(=O)N[C@@H](Cc2cccnc2)C(N)=O)NC(=O)[C@H](Cc2ccccc2)NC(=O)[C@@H]2CCCN2C(=O)CNC(=O)[C@H](C(C)C)NC(=O)[C@H](CC(=O)O)NC1=O [Compound 9, Picolinoyl-D-Val-Tyr-c(Cys-Dab(iPr)-Asp-Val-Gly-Pro-Phe-Cys)-3Pal-NH2] (Picolinoyl-[dV]YC[Dab(iPr)]DVGPFC[3Pal]-NH2; disulfide 3-10) | 100 | 0.15 | 106 | 51 | 351
10 | CC(C)[C@@H]1NC(=O)[C@H](CC(=O)O)NC(=O)[C@H](CNC(=O)COCCOCCNC(=O)COCCOCCN)NC(=O)[C@@H](NC(=O)[C@H](Cc2ccc(O)cc2)NC(=O)[C@H](NC(=O)c2ccccn2)C(C)C)CSSC[C@@H](C(=O)N[C@@H](Cc2cccnc2)C(N)=O)NC(=O)[C@H](Cc2ccccc2)NC(=O)[C@@H]2CCCN2C(=O)CNC1=O [Compound 10] (Picolinoyl-[dV]YC[Dap]([AEEA-AEEA])DVGPFC[3Pal]-NH2; disulfide 3-10) | 100 |  | 107 |  | 
11 | CC(C)[C@@H]1NC(=O)[C@H](CC(=O)O)NC(=O)[C@H](CCCNC(=N)N)NC(=O)[C@@H](NC(=O)[C@H](Cc2ccc(O)cc2)NC(=O)[C@H](NC(=O)c2ncco2)C(C)C)CSSC[C@@H](C(=O)N[C@@H](Cc2cccnc2)C(N)=O)NC(=O)[C@H](Cc2cccnc2)NC(=O)[C@@H]2CCCN2C(=O)CNC1=O [Compound 11, Oxazole-2-carbonyl-D-Val-Tyr-c(Cys-Arg-Asp-Val-Gly-Pro-3Pal-Cys)-3Pal-NH2] (Oxazole2carbonyl-[dV]YCRDVGP[3Pal]C[3Pal]-NH2; disulfide 3-10) | 100 | 0.13 | 108 | 25 | 198
12 | CC(C)[C@@H]1NC(=O)[C@H](CC(=O)O)NC(=O)[C@H](CCCN)NC(=O)[C@@H](NC(=O)[C@H](Cc2ccc(O)cc2)NC(=O)[C@H](NC(=O)c2ccc(F)cn2)C(C)C)CSSC[C@@H](C(=O)N[C@@H](Cc2cccnc2)C(N)=O)NC(=O)[C@H](Cc2ccccc2)NC(=O)[C@@H]2CCCN2C(=O)CNC1=O [Compound 12, Picolinoyl(5-F)-D-Val-Tyr-c(Cys-Orn-Asp-Val-Gly-Pro-Phe-Cys)-3Pal-NH2] ({Picolinoyl(5-F)}-[dV]YC[Orn]DVGPFC[3Pal]-NH2; disulfide 3-10) | 100 | 0.11 | 100 | 18 | 172
